# Literature values, collected in US9375525B2, “Modular extracorporeal systems and methods for treating blood-borne diseases” (Somerset Group Enterprises, Inc., priority 2012, dated 2016).
# Where two headings read alike, the source gives them in different places.
# What was measured:
# [1] = test system: pathogens; details: bactericidal or static
# [2] = test system: Listeria; details: carbonation volume of about 2, about 35° C., pressure up to about 350 MPa, about 300 seconds
# [3] = test system: S. aureus; details: basic conditions versus slightly acidic conditions
Compound,activity [1],Issues with Respect to In vivo Toxicity or Side Effects (in vivo),other results
NCC[C@H](O)C(=O)N[C@@H]1C[C@H](N)[C@@H](O[C@H]2O[C@H](CN)[C@@H](O)[C@H](O)[C@H]2O)[C@H](O)[C@H]1O[C@H]1O[C@H](CO)[C@@H](O)[C@H](N)[C@H]1O [Amikacin],bactericidal,"Nephrotoxicity, ototoxicity",
"O=C=O [CO2, Carbon dioxide]",,,inactivation of Listeria [2]: enhanced the inactivation
O=C(O)c1cn(C2CC2)c2cc(N3CCNCC3)c(F)cc2c1=O [Ciprofloxalin],bactericidal,,
CCCCCCCCCC(=O)N[C@@H](Cc1c[nH]c2ccccc12)C(=O)N[C@H](CC(N)=O)C(=O)N[C@@H](CC(=O)O)C(=O)N[C@@H]1C(=O)NCC(=O)N[C@@H](CCCN)C(=O)N[C@@H](CC(=O)O)C(=O)N[C@H](C)C(=O)N[C@@H](CC(=O)O)C(=O)NCC(=O)N[C@H](CO)C(=O)N[C@@H]([C@H](C)CC(=O)O)C(=O)N[C@@H](CC(=O)c2ccccc2N)C(=O)O[C@@H]1C [Daptomycin],bactericidal,,
CN(C)c1cc(NC(=O)CNC(C)(C)C)c(O)c2c1C[C@H]1C[C@H]3[C@H](N(C)C)C(O)=C(C(N)=O)C(=O)[C@@]3(O)C(O)=C1C2=O [Tigecycline],static,,
NC[C@H]1O[C@H](O[C@H]2[C@H](O)[C@@H](O[C@H]3O[C@H](CO)[C@@H](O)[C@H](N)[C@H]3O)[C@H](N)C[C@@H]2N)[C@H](N)C[C@@H]1O [Tobramycin],bactericidal,"Nephrotoxicity, ototoxicity",
N[C@@H]1[C@H]2CN(c3nc4c(cc3F)c(=O)c(C(=O)O)cn4-c3ccc(F)cc3F)C[C@@H]12 [Trovafloxacin],bactericidal,"Histamine release, Idiosyncratic",
CN[C@H](CC(C)C)C(=O)N[C@H]1C(=O)N[C@@H](CC(N)=O)C(=O)N[C@H]2C(=O)N[C@H]3C(=O)N[C@H](C(=O)N[C@H](C(=O)O)c4cc(O)cc(O)c4-c4cc3ccc4O)[C@H](O)c3ccc(c(Cl)c3)Oc3cc2cc(c3O[C@@H]2O[C@H](CO)[C@@H](O)[C@H](O)[C@H]2O[C@H]2C[C@](C)(N)[C@H](O)[C@H](C)O2)Oc2ccc(cc2Cl)[C@H]1O [vancomycin],,,killing S. aureus [3]: under basic conditions better than under slightly acidic conditions
Colistin,bactericidal,,Issues with Respect to In vivo Toxicity or Side Effects (in vivo use): Only used as last resort antibiotics
Gentamycin,bactericidal,,"Issues with Respect to In vivo Toxicity or Side Effects (in vivo use): Nephrotoxicity, ototoxicity"
Polymixin B,bactericidal,due to renal and neurotoxicity,
